Assay results from paper PMC9709777, “Enzyme-instructed morphology transformation of mitochondria-targeting peptide for the selective eradication of osteosarcoma” (RSC Chemical Biology, 2022).
Like-named read-outs stand apart in the source and are kept apart here.

Key:
Saos-2 cell line [1] = assay: Cellular ROS by dihydroethidium (DHE) staining, confocal microscopy and flow cytometry; type: cell-based; conditions: Saos-2, DHE staining, 20 μM
[2] = TEM analysis of self-assembled morphology, with and without ALP enzyme; type: physicochemical; conditions: 15 μM, before ALP treatment
Description: L-Mito-FFYp consists of a tripeptide backbone Phe–Phe–Tyrp (Tyrp stands for tyrosine phosphate) in which pyrene butyric acid is capped on the N-terminus to promote the self-assembly and TPP is conjugated to the amine group of the lysine side chain for targeting the mitochondria (Fig. S1, ESI ^†). The CAC of L-Mito-FFYp was determined to be 12 μM via pyrene excitation method (Fig. 1A). […] The EIMT of L-Mito-FFYp was investigated by treating it with ALP enzyme. After 24 h incubation (37 °C), fibers having a diameter of ca. 10 nm were observed via transmission electron microscopy (TEM) analysis (Fig. 1D). Specifically, micelles with a diameter of 53 nm were converted into fibers with a diameter of 12.9 nm, most likely by the action of the ALP enzyme. To confirm that the fiber structure corresponded to L-Mito-FFY, L-Mito-FFY was separately synthesized and purified (Fig. S2A and B, ESI ^†). It was supposed after the phosphate group cleaved from the ALP enzyme. The L-tyrosine phosphate was replaced with L-tyrosine. Its self-assembled morphology was analyzed via TEM. […]
(§1) Imaging of apoptosis/necrosis-dependent cell death. […] The cells were then washed gently, the medium was replaced with DMEM medium, and the cells were analyzed using an LSM780 laser confocal scanning microscope. […]

Saos-2 cells = assay: FITC-annexin V/PI assay (confocal imaging and FACS) for mechanism of cell death; type: cell-based; conditions: FITC-annexin V/PI staining
Description: (§2) To confirm that the cytotoxicity of L-Mito-FFYp stems from its selectivity toward ALP and the consequent morphology transformation, the cytotoxicity was evaluated toward Saos-2, HeLa, SK-BR-3, and NIH-3T3 cell lines. SK-BR-3 and NIH-3T3 cell lines are known to express fewer ALP enzymes. […] And the cytotoxicity of L-Mito-FFYp in the Saos-2 cell line was analyzed in the presence and absence of endocytosis inhibitors such as chlorpromazine (clathrin), sucrose (macropinocytosis), and M-β-cyclodextrin (caveolin). […] To further verify the important role of the phosphate moiety, we synthesized L-Mito-FFY compound (Fig. S2, ESI ^†). […] After phosphoric acid was cleaved by the ALP enzyme overexpressed in the Saos-2 cell membrane, Mito-FFY was accumulated in the mitochondria. As a result, apoptosis occurred due to mitochondrial membrane disruption induced by self-assembled fibers inside the mitochondria.
Fig. 3 (A) Cell viability analysis of L-Mito-FFYp in Saos-2, HeLa, SK-BR-3 and NIH 3T3 cell lines for an incubation time of 48 h. […] They are left out because Control is not a substance, and the digits are not readable with certainty […]
as §1

NIH-3T3 cell line = assay: Cell viability, MTT assay; type: cell-based; conditions: NIH 3T3, 10 μM, 48 h incubation
Description: as §2
(§3) Fig. 3 (A) Cell viability analysis of L-Mito-FFYp in Saos-2, HeLa, SK-BR-3 and NIH 3T3 cell lines for an incubation time of 48 h. (B) Cell viability analysis of L-Mito-FFYp in the presence of different endocytosis inhibitos. […] (E) Western blotting analysis showing the release of cytochrome C after treatment with L-Mito-FFYp. […]

HeLa cells = assay: Cell viability, MTT assay; type: cell-based; conditions: 48 h incubation, read-out: Concentration at which 50% viability was observed
Description: as §2, §3

[3] = CAC determination by pyrene excitation method; type: physicochemical
Description: L-Mito-FFYp consists of a tripeptide backbone Phe–Phe–Tyrp (Tyrp stands for tyrosine phosphate) in which pyrene butyric acid is capped on the N-terminus to promote the self-assembly and TPP is conjugated to the amine group of the lysine side chain for targeting the mitochondria (Fig. S1, ESI ^†). The CAC of L-Mito-FFYp was determined to be 12 μM via pyrene excitation method (Fig. 1A). […] The EIMT of L-Mito-FFYp was investigated by treating it with ALP enzyme. After 24 h incubation (37 °C), fibers having a diameter of ca. 10 nm were observed via transmission electron microscopy (TEM) analysis (Fig. 1D). Specifically, micelles with a diameter of 53 nm were converted into fibers with a diameter of 12.9 nm, most likely by the action of the ALP enzyme. To confirm that the fiber structure corresponded to L-Mito-FFY, L-Mito-FFY was separately synthesized and purified (Fig. S2A and B, ESI ^†). It was supposed after the phosphate group cleaved from the ALP enzyme. The L-tyrosine phosphate was replaced with L-tyrosine. Its self-assembled morphology was analyzed via TEM. Similar fibers with a diameter of 10 nm were observed (Fig. S3, ESI ^†), confirming that ALP transforms the L-Mito-FFYp micelles into L-Mito-FFY fibers.
Fig. 1 (A) CAC determination of L-Mito-FFYp using pyrene excitation method. […]

[4] = Surface charge (zeta potential) analysis; type: physicochemical; conditions: 15 μM solution (over the CAC value)
[5] = Cell viability in the presence of ALP inhibitor NBT-BCIP; type: cell-based; conditions: co-treatment with NBT-BCIP solution
Description: as §2
Figure S14. Cell viability analysis of Mito-FFYp in the presence of ALP inhibitor, NBT-BCIP.
(1 picture or pasted object on this page, not shown here)

cytochrome C = assay: Western blotting of cytochrome C release; type: cell-based; conditions: western blotting after treatment
Description: as §2
Fig. 3 (A) Cell viability analysis of L-Mito-FFYp in Saos-2, HeLa, SK-BR-3 and NIH 3T3 cell lines for an incubation time of 48 h. (B) Cell viability analysis of L-Mito-FFYp in the presence of different endocytosis inhibitos. […] (E) Western blotting analysis showing the release of cytochrome C after treatment with L-Mito-FFYp. […] They are left out because Control is not a substance, and the digits are not readable with certainty

SK-BR-3 cell line = type: cell-based; conditions: 48 h, 10 μM
Description: as §2
(§4) Fig. 3 (A) Cell viability analysis of L-Mito-FFYp in Saos-2, HeLa, SK-BR-3 and NIH 3T3 cell lines for an incubation time of 48 h. (B) Cell viability analysis of L-Mito-FFYp in the presence of different endocytosis inhibitos. […] (E) Western blotting analysis showing the release of cytochrome C after treatment with L-Mito-FFYp. TEXT PRINTED IN THE PICTURE: (D) Mito-FFYp: Q1 0.91; Q2 26.4; Q3 8.97; Q4 63.7 DOUBTS OF THE COPYIST ABOUT THIS PICTURE: Mito-FFYp, panel D, Q1: very small blurred print, 0.91 uncertain (could be 0.51 or 0.61) / Mito-FFYp, panel D, Q2: very small blurred print, 26.4 uncertain (6 could be 5 or 8) / Mito-FFYp, panel D, Q3: very small blurred print, 8.97 uncertain (could be 6.97 or 8.57) / Mito-FFYp, panel D, Q4: very small blurred print, 63.7 uncertain (could be 65.7 or 83.7) / Panel D, Control plot also prints quadrant numbers (about Q1 0.090, Q2 0.24, Q3 0.078, Q4 99.6). […]
(§5) M. T. Jeena,‡a Seongeon Jin,‡ a Batakrishna Jana,a and Ja-Hyoung Ryu,*a Materials. All peptides were synthesized manually on a […] scale. The products were purified by high-performance liquid chromatography (HPLC, Agilent Technologies, USA) with a C-18 reverse column in ACN/water mixture. […]

Saos-2 cell line [6] = type: cell-based
Description: as §2, §4, §5

## NC(=O)[C@H](CCCCNCCCCCC[P+](c1ccccc1)(c1ccccc1)c1ccccc1)NC(=O)[C@H](Cc1ccc(OP(=O)(O)O)cc1)NC(=O)[C@H](Cc1ccccc1)NC(=O)[C@H](Cc1ccccc1)NC(=O)CCCc1ccc2ccc3cccc4ccc1c2c34 [L-Mito-FFYp]
Saos-2 cell line [1]
  Cellular ROS: overproduction of ROS
[2]
  Micelle diameter: 53 nm
Saos-2 cells
  Mechanism of cell death: late apoptosis
NIH-3T3 cell line
  Cell viability: ~90%
HeLa cells
  IC50: ~5 µM
[3]
  Critical Aggregation Concentration (CAC): 12 µM
[4]
  Surface charge (zeta potential): −25.6 ± 0.32 mV
[5]
  Toxicity in the presence of ALP inhibitor: remarkably reduced
Cytochrome C
  Cytochrome C release from the mitochondria: released
SK-BR-3 cell line
  Cell viability: ~90%
Saos-2 cell line [6]; Saos-2, 48 h incubation, MTT, read-out: Concentration at which 50% viability was observed
  IC50: ~5 µM
Saos-2 cell line [6]; human
  IC50: ~10 µM
